Measured values reported in patent publication US20240018110A1, “RADIOLABELED COMPOUNDS TARGETING THE PROSTATE-SPECIFIC MEMBRANE ANTIGEN” (THE UNIVERSITY OF BRITISH COLUMBIA, priority 2020, published 2024).

Molecular target: PSMA (Homo sapiens, UniProt Q04609)
Test: In vitro competitive binding assay

Sequence of PSMA (Q04609 whole entry): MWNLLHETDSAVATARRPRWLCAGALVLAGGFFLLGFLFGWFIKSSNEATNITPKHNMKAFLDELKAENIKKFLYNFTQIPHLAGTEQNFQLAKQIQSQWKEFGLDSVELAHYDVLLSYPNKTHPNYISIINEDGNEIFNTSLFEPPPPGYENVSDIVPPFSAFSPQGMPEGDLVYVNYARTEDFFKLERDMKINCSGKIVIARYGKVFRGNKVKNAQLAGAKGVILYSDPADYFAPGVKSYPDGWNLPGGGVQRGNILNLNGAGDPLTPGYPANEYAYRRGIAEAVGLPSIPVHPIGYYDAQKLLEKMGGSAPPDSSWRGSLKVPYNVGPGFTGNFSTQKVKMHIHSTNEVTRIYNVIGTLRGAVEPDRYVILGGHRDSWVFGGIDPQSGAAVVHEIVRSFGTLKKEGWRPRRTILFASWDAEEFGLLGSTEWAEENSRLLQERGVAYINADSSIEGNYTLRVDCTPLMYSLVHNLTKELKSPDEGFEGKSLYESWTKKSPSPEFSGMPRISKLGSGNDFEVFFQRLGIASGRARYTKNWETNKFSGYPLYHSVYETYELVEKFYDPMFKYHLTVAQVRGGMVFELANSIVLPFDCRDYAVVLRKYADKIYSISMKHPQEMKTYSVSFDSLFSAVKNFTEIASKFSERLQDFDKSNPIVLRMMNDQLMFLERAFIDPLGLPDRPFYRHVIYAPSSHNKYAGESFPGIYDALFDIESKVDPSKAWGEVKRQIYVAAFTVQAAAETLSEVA

O=C(O)CC[C@H](NC(=O)N[C@@H](C[C@H]1C[C@@H]1CNC(=O)[C@H](Cc1c2ccccc2cc2ccccc12)NC(=O)[C@H]1CC[C@H](CNC(=O)CN2CCN(CC(=O)O)CCN(CC(=O)O)CCN(CC(=O)O)CC2)CC1)C(=O)O)C(=O)O [PD-6-49]
Ki: 11.9 nM

O=C(O)CCC[C@H](NC(=O)N[C@@H](COCCNC(=O)[C@H](Cc1c2ccccc2cc2ccccc12)NC(=O)C1CCC(CNC(=O)CN2CCN(CC(=O)O)CCN(CC(=O)O)CCN(CC(=O)O)CC2)CC1)C(=O)O)C(=O)O (some centres unmarked) [CCZ02011]
Ki: 1.23 nM

O=C(O)CCC[C@H](NC(=O)N[C@@H](CCCONC(=O)[C@H](Cc1c2ccccc2cc2ccccc12)NC(=O)C1CCC(CNC(=O)CN2CCN(CC(=O)O)CCN(CC(=O)O)CCN(CC(=O)O)CC2)CC1)C(=O)O)C(=O)O (some centres unmarked) [CCZ02018]
Ki: 1.61 ± 0.04 nM

O=C(O)CCC[C@@H](OC(=O)N[C@@H](CCCCNC(=O)[C@H](Cc1c2ccccc2cc2ccccc12)NC(=O)[C@H]1CC[C@H](CNC(=O)CCc2ccc(O)c(CN(CCN(CC(=O)O)Cc3cc(CCC(=O)O)ccc3O)CC(=O)O)c2)CC1)C(=O)O)C(=O)O [AR-2-113-2, HBED-CC-PSMA-Aad-carbamate]
Ki: 56.3 nM

O=C(O)CCC[C@H](OC(=O)N[C@@H](CCCCNC(=O)[C@H](Cc1c2ccccc2cc2ccccc12)NC(=O)[C@H]1CC[C@H](CNC(=O)CN2CCN(CC(=O)O)CCN(CC(=O)O)CCN(CC(=O)O)CC2)CC1)C(=O)O)C(=O)O [AR-2-050-1, DOTA-PSMA-Aad-carbamate]
Ki: 8.99 nM

O=C(O)CC[C@H](NC(=O)N[C@@H](C[C@@H]1C[C@H]1CNC(=O)[C@H](Cc1c2ccccc2cc2ccccc12)NC(=O)[C@H]1CC[C@H](CNC(=O)CN2CCN(CC(=O)O)CCN(CC(=O)O)CCN(CC(=O)O)CC2)CC1)C(=O)O)C(=O)O [ADZ-4-101]
Ki: 2.42 nM

O=C(O)CCC[C@H](NC(=O)N[C@@H](CCCCCNC(=O)[C@H](Cc1c2ccccc2cc2ccccc12)NC(=O)C1CCC(CNC(=O)CN2CCN(CC(=O)O)CCN(CC(=O)O)CCN(CC(=O)O)CC2)CC1)C(=O)O)C(=O)O (some centres unmarked) [CCZ02010]
Ki: 17 nM

O=C(O)CCC[C@H](NC(=O)N[C@@H](CSC[C@@H](NC(=O)[C@H](Cc1c2ccccc2cc2ccccc12)NC(=O)C1CCC(CNC(=O)CN2CCN(CC(=O)O)CCN(CC(=O)O)CCN(CC(=O)O)CC2)CC1)C(=O)O)C(=O)O)C(=O)O (some centres unmarked) [CCZ02033]
Ki: 461 nM
